This note sets out measurements from patent US10787450B2 (BRISTOL-MYERS SQUIBB COMPANY, priority 2016, dated 2020).

Usually IC50 stands for the concentration needed to halve the response being measured. A lower IC50 goes with greater potency.

Counter-ions that a name gives are not always drawn.

Chain of ROCK2 (O75116 whole entry, species assumed): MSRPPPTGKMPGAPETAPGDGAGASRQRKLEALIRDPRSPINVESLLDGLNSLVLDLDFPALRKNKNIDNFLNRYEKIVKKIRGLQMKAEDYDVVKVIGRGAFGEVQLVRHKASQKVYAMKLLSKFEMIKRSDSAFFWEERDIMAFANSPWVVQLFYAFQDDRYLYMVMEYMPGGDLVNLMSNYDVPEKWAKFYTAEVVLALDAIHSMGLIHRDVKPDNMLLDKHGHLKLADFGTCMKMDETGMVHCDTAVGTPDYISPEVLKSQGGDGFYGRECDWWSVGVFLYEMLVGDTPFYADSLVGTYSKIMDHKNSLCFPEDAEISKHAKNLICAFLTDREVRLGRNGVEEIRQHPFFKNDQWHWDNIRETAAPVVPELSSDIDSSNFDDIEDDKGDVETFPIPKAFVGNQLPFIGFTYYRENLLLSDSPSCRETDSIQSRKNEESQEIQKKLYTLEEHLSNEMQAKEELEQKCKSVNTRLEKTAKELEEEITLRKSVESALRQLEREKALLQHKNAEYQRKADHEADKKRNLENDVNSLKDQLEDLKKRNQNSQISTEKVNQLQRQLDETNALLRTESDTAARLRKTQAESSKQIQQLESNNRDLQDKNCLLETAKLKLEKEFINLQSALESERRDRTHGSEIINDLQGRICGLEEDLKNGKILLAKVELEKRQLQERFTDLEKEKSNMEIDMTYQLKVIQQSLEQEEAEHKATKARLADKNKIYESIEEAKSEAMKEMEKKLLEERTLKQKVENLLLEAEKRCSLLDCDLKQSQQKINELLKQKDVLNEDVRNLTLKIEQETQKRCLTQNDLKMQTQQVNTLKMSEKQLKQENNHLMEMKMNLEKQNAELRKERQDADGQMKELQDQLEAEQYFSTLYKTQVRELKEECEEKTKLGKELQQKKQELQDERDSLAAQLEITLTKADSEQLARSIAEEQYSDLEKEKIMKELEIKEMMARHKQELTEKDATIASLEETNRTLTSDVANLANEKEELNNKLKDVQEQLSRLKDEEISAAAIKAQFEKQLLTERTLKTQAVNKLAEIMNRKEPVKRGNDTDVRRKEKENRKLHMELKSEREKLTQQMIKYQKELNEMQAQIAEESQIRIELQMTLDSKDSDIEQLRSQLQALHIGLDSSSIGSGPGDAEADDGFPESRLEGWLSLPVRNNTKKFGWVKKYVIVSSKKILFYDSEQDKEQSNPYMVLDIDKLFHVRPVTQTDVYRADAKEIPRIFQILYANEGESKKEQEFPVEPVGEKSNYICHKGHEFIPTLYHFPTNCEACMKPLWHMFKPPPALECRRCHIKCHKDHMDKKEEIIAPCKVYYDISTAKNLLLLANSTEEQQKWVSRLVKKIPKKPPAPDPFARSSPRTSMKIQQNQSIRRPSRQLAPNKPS

The assay deals with ROCK2 (Homo sapiens (Human), UniProt O75116). The experiment in a line: ROCK2 kinase inhibition assay (FITC peptide substrate, LABCHIP 3000 Reader). In kind it is biochemical. The following applies: 5 μM ATP, 1.5 μM peptide substrate. Here is the method:
The effectiveness of compounds of the present invention as ROCK inhibitors can be determined in a 30 μL assay containing 20 mM HEPES, pH 7.5, 20 mM MgCl2, 0.015% Brij-35, 4 mM DTT, 5 μM ATP and 1.5 μM peptide substrate (FITC-AHA-AKRRRLSSLRA-OH) (SEQ ID NO. 1). Compounds were dissolved in DMSO so that the final concentration of DMSO was <2%, and the reaction was initiated with Rho kinase variants. After incubation, the reaction was terminated by the addition of EDTA and the phosphorylated and non-phosphorylated peptides separated using a LABCHIP® 3000 Reader (Caliper Life Sciences). […] Compounds were tested in dose-response format, and the inhibition of kinase activity was calculated at each concentration of compound. The inhibition data were fit using a curve-fitting program to determine the IC50; i.e., the concentration of compound required to inhibit 50% of kinase activity.
Representative examples were tested in the ROCK2 assay described above and found having ROCK2 inhibitory activity.
Regarding `COc1cccc(CN2C(=O)N(c3ccc(-c4cn[nH]c4)cc3)CC23CCN(C(=O)c2cnn4ccccc24)CC3)c1` [Example 180, 3-(4-(1H-pyrazol-4-yl)phenyl)-1-(3-methoxybenzyl)-8-(pyrazolo[1,5-a]pyridine-3-carbonyl)-1,3,8-triazaspiro[4.5] decan-2-one], the IC50 lay within 3 to 30 nM.

For `CCc1cc(N2CC3(CC3)N(Cc3cc(F)cc(OC)c3)C2=O)ccc1-c1cn[nH]c1` [Example 4, 6-(3-ethyl-4-(1H-pyrazol-4-yl)phenyl)-4-(3-fluoro-5-methoxybenzyl)-4,6-diazaspiro[2.4]heptan-5-one], the IC50 is 3 to 30 nM.

In the case of `COc1cccc(CN2C(=O)N(c3ccc(-c4cn[nH]c4)cc3)CC23CCN(CC(C)C)CC3)c1` [Example 124, 3-(4-(1H-pyrazol-4-yl)phenyl)-8-isobutyl-1-(3-methoxybenzyl)-1,3,8-triazaspiro[4.5]decan-2-one], the IC50 was less than 3 nM.

In turn, `Cc1c(F)cccc1CN1C(=O)N(c2ccc(-c3cn[nH]c3)cc2)CC12CCN(CCO)CC2` [Example 143, 3-(4-(1H-pyrazol-4-yl)phenyl)-1-(3-fluoro-2-methylbenzyl)-8-(2-hydroxyethyl)-1,3,8-triazaspiro[4.5]decan-2-one] came in with an IC50 of less than 3 nM.

For `CCc1nc(N2CC3(CCN(CCC(F)(F)F)CC3)N(Cc3cc(F)cc(OC)c3)C2=O)ccc1-c1cn[nH]c1` [Example 128, 3-(6-ethyl-5-(1H-pyrazol-4-yl)pyridin-2-yl)-1-(3-fluoro-5-methoxybenzyl)-8-(3,3,3-tnfluoropropyl)-1,3,8-triazaspiro[4.5]decan-2-one], the IC50 fell in the range of 3 to 30 nM.

`O=C1N(c2ccc(-c3cn[nH]c3)cc2)CC2(CCOCC2)N1Cc1cccc(C(F)(F)F)c1` [Example 18, 3-(4-(1H-pyrazol-4-yl)phenyl)-1-(3-(trifluoromethyl)benzyl)-8-oxa-1,3-diazaspiro[4.5]decan-2-one] returned an IC50 of 30 to 250 nM.

`O=C1N(c2ccc(-c3cn[nH]c3)cc2)CC2(CCNCC2)N1Cc1cccc(OCC2CC2)c1` [Example 60, 3-(4-(1H-pyrazol-4-yl)phenyl)-1-(3-(cyclopropylmethoxy)benzyl)-1,3,8-triazaspiro[4.5] decan-2-one, TFA]: the IC50 is 3 to 30 nM.

`COc1nc(N2CC3(CCN(C(=O)C(C)(C)O)CC3)N(Cc3cccc(F)c3C)C2=O)ccc1-c1cn[nH]c1` [Example 230, 1-(3-fluoro-2-methylbenzyl)-8-(2-hydroxy-2-methylpropanoyl)-3-(6-methoxy-5-(1H-pyrazol-4-yl)pyridin-2-yl)-1,3,8-triazaspiro[4.5]decan-2-one] came in with an IC50 of less than 3 nM.

Consider `COc1cc(F)cc(CN2C(=O)N(c3ccc(-c4cn[nH]c4)cc3)CC23CCN(C(=O)C(C)(C)O)CC3)c1` [Example 190, 3-(4-(1H-pyrazol-4-yl)phenyl)-1-(3-fluoro-5-methoxybenzyl)-8-(2-hydroxy-2-methylpropanoyl)-1,3,8-triazaspiro[4.5] decan-2-one], for which the IC50 was less than 3 nM.

Regarding `CCc1nc(N2CC3(CCN(C(=O)C4(O)CC4)CC3)N(Cc3cccc(OC)c3)C2=O)ccc1-c1cn[nH]c1` [Example 216, 3-(6-ethyl-5-(1H-pyrazol-4-yl)pyridin-2-y)-8-(1-hydroxycyclopropanecarbonyl)-1-(3-methoxybenzyl)-1,3,8-triazaspiro[4.5]decan-2-one], the IC50 is 3 to 30 nM.

`CCc1nc(N2CC3(CCN(C(=O)C4COC4)CC3)N(Cc3cccc(F)c3C)C2=O)ccc1-c1cn[nH]c1` [Example 182, 3-(6-ethyl-5-(1H-pyrazol-4-yl)pyridin-2-yl)-1-(3-fluoro-2-methylbenzyl)-8-(oxetane-3-carbonyl)-1,3,8-triazaspiro[4.5]decan-2-one]: the IC50 was less than 3 nM.

Consider `COc1cccc(CN2C(=O)N(c3ccc(-c4cn[nH]c4)c(OC)n3)CC23CCN(C(C)=O)CC3)c1` [Example 85, 8-acetyl-3-(6-methoxy-5-(1H-pyrazol-4-yl)pyridin-2-yl)-1-(3-methoxybenzyl)-1,3,8-triazaspiro[4.5]decan-2-one], for which the IC50 is less than 3 nM.

`CC1(NC(=O)c2cccc(CN3C(=O)N(c4ccc(-c5cn[nH]c5)cc4)CC34CCOCC4)c2)CC1` [Example 39, 3-((3-(4-(1H-pyrazol-4-yl)phenyl)-2-oxo-8-oxa-1,3-diazaspiro[4.5]decan-1-yl)methyl)-N-(1-methylcyclopropyl)benzamide]: the IC50 lay in the range of 3 to 30 nM.

On to `COc1cccc(CN2C(=O)N(c3ccc(-c4cn[nH]c4)cc3)CC23CCN(C(=O)OC(C)(C)C)CC3)c1` [Example 48, tert-butyl 3-(4-(1H-pyrazol-4-yl)phenyl)-1-(3-methoxybenzyl)-2-oxo-1,3,8-triazaspiro[4.5]decane-8-carboxylate], for which the IC50 lay in the range of 3 to 30 nM.

For `CCc1nc(N2CC3(CCN(CCO)CC3)N(Cc3cccc(F)c3C)C2=O)ccc1-c1cn[nH]c1` [Example 149, 3-(6-ethyl-5-(1H-pyrazol-4-yl)pyridin-2-yl)-1-(3-fluoro-2-methylbenzyl)-8-(2-hydroxyethyl)-1,3,8-triazaspiro[4.5]decan-2-one], the IC50 was less than 3 nM.

`CCc1nc(N2CC3(CCN(C(=O)COC)CC3)N(Cc3cccc(OC)c3)C2=O)ccc1-c1cn[nH]c1` [Example 206, 3-(6-ethyl-5-(1H-pyrazol-4-yl)pyridin-2-yl)-8-(2-methoxyacetyl)-1-(3-methoxybenzyl)-1,3,8-triazaspiro[4.5]decan-2-one] showed an IC50 of less than 3 nM.

Take `COc1cccc(CN2C(=O)N(c3ccc(-c4cn[nH]c4)cn3)CC23CCN(C(=O)CO)CC3)c1` [Example 195, 3-(5-(1H-pyrazol-4-yl)pyridin-2-yl)-8-(2-hydroxyacetyl)-1-(3-methoxybenzyl)-1,3,8-triazaspiro[4.5]decan-2-one]: the IC50 was in the range of 3 to 30 nM.

With `COc1cccc(NC2C(=O)N(c3ccc(-c4cn[nH]c4)cc3)CC23CCN(C(C)=O)CC3)c1` (centres unmarked) [Example 249, -(4-(1H-pyrazol-4-yl)phenyl)-8-acetyl-4-((3-methoxy-phenyl)amino)-2,8-diazaspiro [4.5]decan-3-one], the IC50 lay in the range of 250 to 3000 nM.

`CCc1nc(N2CC3(CCN(CC(C)O)CC3)N(Cc3cccc(F)c3C)C2=O)ccc1-c1cn[nH]c1` (centres unmarked) [Example 156, 3-(6-ethyl-5-(1H-pyrazol-4-yl)pyridin-2-yl)-1-(3-fluoro-2-methylbenzyl)-8-(2-hydroxypropyl)-1,3,8-triazaspiro[4.5]decan-2-one]: the IC50 was less than 3 nM.

`Cc1c(F)cccc1CN1C(=O)N(c2ccc(-c3cn[nH]c3)cc2)CC12CCOCC2` [Example 25, 3-(4-(1H-pyrazol-4-yl)phenyl)-1-(3-fluoro-2-methylbenzyl)-8-oxa-1,3-diazaspiro[4.5]decan-2-one]: the IC50 is less than 3 nM.

Consider `CN(C)C1CN(C(=O)c2cccc(CN3C(=O)N(c4ccc(-c5cn[nH]c5)cc4)CC34CCOCC4)c2)C1` [Example 46, 3-(4-(1H-pyrazol-4-yl)phenyl)-1-(3-(3-(dimethylamino)azetidine-1-carbonyl)benzyl)-8-oxa-1,3-diazaspiro[4.5]decan-2-one], for which the IC50 was 3 to 30 nM.

In turn, `CC(=O)N1CCC2(CC1)CN(c1ccc(-c3cn[nH]c3)cc1)C(=O)N2Cc1cc(F)ccc1F` [Example 78, 3-(4-(1H-pyrazol-4-yl)phenyl)-8-acetyl-1-(2,5-difluorobenzyl)-1,3,8-triazaspiro[4.5]decan-2-one] displayed an IC50 of 30 to 250 nM.

Regarding `COc1cccc(CN2C(=O)N(c3ncc(-c4cn[nH]c4)c(OC)n3)CC23CCN(C(C)=O)CC3)c1` [Example 90, 8-acetyl-3-(4-methoxy-5-(1H-pyrazol-4-yl)pyrimidin-2-yl)-1-(3-methoxybenzyl)-1,3,8-triazaspiro[4.5]decan-2-one], the IC50 lay within 3 to 30 nM.

`COc1cccc(CN2C(=O)N(c3ccc(-c4cn[nH]c4)cc3)CC23CCN(C(=O)C2CCOCC2)CC3)c1` [Example 173, 3-(4-(1H-pyrazol-4-yl)phenyl)-1-(3-methoxybenzyl)-8-(tetrahydro-2H-pyran-4-carbonyl)-1,3,8-triazaspiro[4.5]decan-2-one, TFA] showed an IC50 of less than 3 nM.

`Cc1c(F)cccc1CN1C(=O)N(c2ccc(-c3cn[nH]c3)cc2)CC12CCN(CC(F)F)CC2` [Example 131, 3-(4-(1H-pyrazol-4-yl)phenyl)-8-(2,2-difluoroethyl)-1-(3-fluoro-2-methylbenzyl)-1,3,8-triazaspiro[4.5]decan-2-one] came in with an IC50 of less than 3 nM.

With `COc1cccc(CN2C(=O)N(c3ncc(-c4cn[nH]c4)c(OC)n3)CC23CCN(C(=O)OC(C)(C)C)CC3)c1` [Example 56, tert-butyl 3-(4-methoxy-5-(1H-pyrazol-4-yl)pyrimidin-2-yl)-1-(3-methoxybenzyl)-2-oxo-1,3,8-triazaspiro[4.5]decane-8-carboxylate], the IC50 is 3 to 30 nM.

In the case of `COc1cccc(C(C)N2C(=O)N(c3ccc(-c4cn[nH]c4)cc3)CC23CC3)c1` (single isomer, unassigned) [Example 2, 6-(4-(1H-pyrazol-4-yl)phenyl)-4-(1-(3-methoxyphenyl)ethyl)-4,6-diazaspiro[2.4]heptan-5-one], the IC50 is 3 to 30 nM.

`CCc1nc(N2CC3(CCN(C(=O)C(F)F)CC3)N(Cc3cccc(OC)c3)C2=O)ccc1-c1cn[nH]c1` [Example 183, 8-(2,2-difluoroacetyl)-3-(6-ethyl-5-(1H-pyrazol-4-yl)pyridin-2-yl)-1-(3-methoxybenzyl)-1,3,8-triazaspiro[4.5]decan-2-one] came in with an IC50 of less than 3 nM.

In turn, `COc1cccc(NC2C(=O)N(c3ccc(-c4cn[nH]c4)cc3)CC23CN(C(=O)OC(C)(C)C)C3)c1` (centres unmarked) [Example 240, tert-butyl 6-(4-(1H-pyrazol-4-yl)phenyl)-8-((3-methoxyphenyl)amino)-7-oxo-2,6-diazaspiro[3.4]octane-2-carboxylate] showed a half-maximal inhibitory concentration (IC50) of 30 to 250 nM.
